The text below walks through data of US20230147312A1, “TREATMENT OF ACUTE RESPIRATORY DISTRESS SYNDROME AND RELATED CONDITIONS WITH ANTAGONISTS OF E-SELECTIN” (GLYCOMIMETICS, INC., priority 2020, published 2023).

The subject of data set [1] is Human lung microvascular endothelial cells (HMVEC-L). Particulars: HMVEC-L treated with 10 μM; cited from earlier work.
The subject of data set [2] is animals. The data set can be described thus: toxicity in animals.
The test system of data set [3] is humans. Nature of the data set: toxicity in Phase 1 clinical trials / humans.
Data set [4] deals with animals. Particulars: in vivo.
In another data set the test system is sE-selectin. The following applies: cited from earlier work.
Data set [5] relates to humans. The following applies: human, in vivo.
In the next data set the target is T1, E-selectin (Homo sapiens, UniProt P16581).
T1 sequence (P16581 22-610): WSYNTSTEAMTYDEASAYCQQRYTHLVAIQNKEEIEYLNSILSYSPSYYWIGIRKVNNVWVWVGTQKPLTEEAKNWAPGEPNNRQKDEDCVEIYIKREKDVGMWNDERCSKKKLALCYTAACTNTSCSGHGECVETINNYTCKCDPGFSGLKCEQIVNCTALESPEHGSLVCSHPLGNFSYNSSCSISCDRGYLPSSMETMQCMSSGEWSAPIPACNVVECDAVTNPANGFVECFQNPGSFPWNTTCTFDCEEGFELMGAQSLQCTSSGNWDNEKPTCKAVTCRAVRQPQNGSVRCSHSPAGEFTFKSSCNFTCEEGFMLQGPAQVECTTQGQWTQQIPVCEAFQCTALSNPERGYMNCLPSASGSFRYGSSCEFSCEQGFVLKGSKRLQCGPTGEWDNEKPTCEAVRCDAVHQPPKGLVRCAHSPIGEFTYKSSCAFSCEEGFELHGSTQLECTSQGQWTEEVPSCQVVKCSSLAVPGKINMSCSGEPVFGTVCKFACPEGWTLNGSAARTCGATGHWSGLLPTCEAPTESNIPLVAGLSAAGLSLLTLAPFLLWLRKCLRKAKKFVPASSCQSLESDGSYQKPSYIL
Nature of the data set: binding and inhibiting E-selectin.

Data set [6] deals with human umbilical vein endothelial cells (HUVEC). The following applies: cytokine treatment over 4 hours, vs Medium control; cited from earlier work.
Data set [7] has as its system human dermal microvascular endothelial cells (HDMEC). The following applies: cytokine treatment over 4 hours, vs Medium control; cited from earlier work.
For another data set, the system named is COVID-19 patients. The following applies: of six COVID-19 patients in the ICU; cited from earlier work.

“Also recorded” adds a separate entry of the source. Where two headings read alike, the source gives them in different places.

Consider `CCCCCCCCCCCCCCC(Cl)C(=O)O` (stereo not shown) [Compound 2-CIPA, 2-chloropalmitic acid], for which, in data set [1], the “adherence of human neutrophils” value was “promoted neutrophil adhesion; also recorded: increases adhesion of neutrophils”.

As for `C[C@@H]1O[C@@H](O[C@@H]2[C@@H](NC(=O)c3cc(=O)[nH]c(=O)[nH]3)C[C@@H](C(=O)NCCNC(=O)COCCOCC(=O)Nc3cc(S(=O)(=O)O)cc4cc(S(=O)(=O)O)cc(S(=O)(=O)O)c34)C[C@H]2O[C@@H]2O[C@H](CO)[C@H](O)[C@H](O[C@@H](CC3CCCCC3)C(=O)O)[C@H]2OC(=O)c2ccccc2)[C@@H](O)[C@H](O)[C@@H]1O` [GMI-1070], the toxicities result in the data set with animals [2] and in the data set on humans [3] (Phase 1 clinical trials) was “no measurable toxicities” in each case. The toxicity result is on record as “no toxicity” in the data set on animals [2] (relatively high concentrations) and “no toxicity” in the data set with humans [3] (humans, relatively high concentrations).

Take `CC[C@H]1C[C@@H](C(=O)NCCNC(=O)CCOCCOCCOCCOCCOCCOCCOCCOCCOCCOCCOCCOC)C[C@@H](O[C@@H]2O[C@H](CO)[C@H](O)[C@H](O[C@@H](CC3CCCCC3)C(=O)[O-])[C@H]2NC(C)=O)[C@@H]1O[C@@H]1O[C@@H](C)[C@@H](O)[C@@H](O)[C@@H]1O.[Na+]` [GMI-1271]: in the data set with animals [4], the toxicities result was “no measurable toxicities” and the toxicity entry is listed as “no toxicity”. The “sE-selectin circulating (plasma) levels” value with sE-selectin (AML patients, after treatment, all dose groups) was “significantly (P<0.0001) reduced; also recorded: decreased over the treatment period in all dose groups”. Besides, the “decrease of plasma soluble E-selectin from baseline to Day 8” value in the data set with sE-selectin (end of 6 days of dosing concurrently with MEC chemotherapy) was “highly significant (p<0.0001) with no dose response”. In addition, in the data set on humans [5], the toxicities entry is recorded as “no measurable toxicities” and the toxicity entry is on record as “no toxicity”. Besides, the “antagonism of E-selectin” value at E-selectin is “potent antagonists of E-selectin”.

In the case of `CCCCCCCCCCCCCCCC(=O)O` [PA, palmitic acid], in data set [1], the “adherence of human neutrophils” value is recorded as “did not”.

As to “IL-1β: cytokine used to treat endothelial cells”, the “expression of E-selectin” value in data set [6] and in data set [7] was “stimulate expression of E-selectin” throughout.

In the case of TNFα, the “expression of E-selectin” value in data set [6] and in [7] was “stimulate expression of E-selectin” each time.

“tocilizimab: antibody directed against the cytokine, IL-6, approved as an anti-inflammatory drug”: in the data set with COVID-19 patients, the patients who died entry is “one”, the “patients who showed improvement” value is given as “three” and the patients who stabilized entry is reported as “two”.

B1: IL-10: cytokine used to treat endothelial cells (protein, UniProt P22301 19-178, looked up)
Interleukin-10: SPGQGTQSENSCTHFPGNLPNMLRDLRDAFSRVKTFFQMKDQLDNLLLKESLLEDFKGYLGCQALSEMIQFYLEEVMPQAENQDPDIKAHVNSLGENLKTLRLRLRRCHRFLPCENKSKAVEQVKNAFNKLQEKGIYKAMSEFDIFINYIEAYMTMKIRN
On to B1, for which the “expression of E-selectin” value in [6] and in data set [7] was “stimulate expression of E-selectin” each time.
